US9650375B2, “Indole derivatives useful as anti-diabetic agents” (Merck Sharp & Dohme Corp., priority 2013, dated 2017)

Tests used:
ob/ob and db/db mice = settings: following 8 weeks of administration; cited from earlier work
[1] = target: T1, recombinant human AMPK complex 1 (containing α1β1γ1) (Homo sapiens, UniProt Q13131+Q9Y478); test: In vitro AMPK activation assay (AMPKSAMSF), AMPK complex 1; type: biochemical; settings: for Emax: 10-point titration data expressed as % maximum AMP activation; for EC50: human AMPK complex 1, inflection point reflecting 50% of the maximum activation
T1 construct: made in house; host or cells: Spodoptera frugiperda Sf21 cells (baculovirus, triple infection)
Experimental: (§1) AMPKSAMSF (In Vitro AMPK Activation Assay)
(§2) The recombinant human AMPK complex 1 (containing α1β1γ1) and complex 7 (containing α2β1γ1) were obtained from baculovirus expression system. Recombinant viruses were generated by cotransfection of AMPK/pBacPak9 clones with Baculogold baculovirus DNA (Pharmingen) in spodoptera frugiperda 21 cells according to the manufacturer's instructions. Each round of virus amplification was performed for 5 days in Grace's medium containing 10% serum. Virus that had been subjected to three rounds of amplification was used for all protein production procedures. To express the AMPK complex, sf21 cells were adapted to serum free medium (SF900 II, Invitrogen) by sequential dilution from serum containing stocks into SF900II medium and maintained in shaker flasks at 90 rpm at 27° C. The recombinant AMPK enzyme complex was produced by triple infection, one recombinant virus for each of the subunits, in sf21 cells under serum free conditions. Cells were infected in log phase, 1×10^6 cells/ml, at a multiplicity of infection of ˜5. Cells were harvested by centrifugation at 10,000×g for 15 minutes after 72 hours of infection with viruses. The insect cell pellet from 2 liters of culture was resuspended in 50 ml lysis buffer (20 mM Tris-HCl, 50 mM NaCl, 50 mM NaF, 30 mM Na PPi, 0.25 M sucrose, 10 mM ZnCl2, 2 mM DTT, 0.4 mg/ml digitonin) and subjected to two cycles of freeze-thaw lysis in a dry-ice ethanol bath. Insoluble material was removed by centrifugation at 10,000×g and the supernatant was fractionated with use of polyethylene glycol (PEG). The protein fraction precipitating between 2.5 and 6% PEG was used for further purification using a Blue-Sepharose step (Zhou et al, J. Clin. Invest. 108, 1167-1174, 2001).
(§3) The in vitro AMPK activation assay is performed in a volume of 30 μl in a 384-well plate. Enzyme reactions were assembled in the microtiter plate by adding 15 μl of 2× enzyme in assay buffer (20 mM HEPES, pH 7.3, 5 mM MgCl2, 3 mM DTT, 0.01% Brij 35 and CamK Kinase, to activate AMPK) to wells which contained either DMSO or compound. The reaction was initiated with the addition of 15 μ12× substrate mixture containing 200 μM ATP, and 3.0 μM fluorescently labeled SAMS (5-FAM-HMRSAMSGLHLVKRR—COOH) in assay buffer. After 45-minute incubation at 25° C., the reaction was stopped by the addition of 70 μl stop buffer (100 mM HEPES, pH 7.3, 40 mM EDTA, 0.015% Brij 35). Phosphorylated 5-FAM SAMS product is assessed using a Caliper EZ Reader LabChip microfluidics reader. Product conversion is determined by calculating the peak heights of the substrate and product and reporting the product/(product+substrate) peak ratio. The 10-point titration data were expressed as % maximum AMP activation. The results were plotted using 4 parameter fit and the inflection point reflecting 50% of the maximum activation was reported as the EC50.
(§4) The compounds of present invention, including the compounds of Examples 1-142, were tested in the in vitro AMPK activation assay using recombinant human AMPK complex 1 (containing α1β1γ1) or AMPK complex 7 (containing α2β1γ1) and found to have increased activation of human AMPK complex 1 or complex 7 at concentrations of less than 50 μM.

[2] = target: T2, recombinant human AMPK complex 7 (containing α2β1γ1) (Homo sapiens, UniProt P54646+Q9Y478); test: In vitro AMPK activation assay (AMPKSAMSF), AMPK complex 7; type: biochemical; settings: for Emax: 10-point titration data expressed as % maximum AMP activation; for EC50: human AMPK complex 7, inflection point reflecting 50% of the maximum activation
T2 construct: made in house; host or cells: Spodoptera frugiperda Sf21 cells (baculovirus, triple infection)
Experimental: as §1, §2, §3, §4

T2 sequence (P54646 whole entry): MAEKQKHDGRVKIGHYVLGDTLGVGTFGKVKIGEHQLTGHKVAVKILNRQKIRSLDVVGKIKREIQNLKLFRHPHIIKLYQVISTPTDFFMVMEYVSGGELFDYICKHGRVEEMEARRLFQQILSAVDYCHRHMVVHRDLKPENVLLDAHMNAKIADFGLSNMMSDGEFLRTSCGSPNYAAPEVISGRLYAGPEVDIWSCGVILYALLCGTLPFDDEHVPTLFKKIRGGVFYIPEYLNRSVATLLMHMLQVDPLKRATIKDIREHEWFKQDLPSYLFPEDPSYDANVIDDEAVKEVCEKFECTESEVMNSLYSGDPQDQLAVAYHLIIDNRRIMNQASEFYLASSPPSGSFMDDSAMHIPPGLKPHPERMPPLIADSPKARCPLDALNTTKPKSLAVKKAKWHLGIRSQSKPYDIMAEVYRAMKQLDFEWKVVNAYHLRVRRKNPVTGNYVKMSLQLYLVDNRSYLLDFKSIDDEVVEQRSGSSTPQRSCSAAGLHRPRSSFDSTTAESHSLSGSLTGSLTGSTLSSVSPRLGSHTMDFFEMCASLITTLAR
T2 sequence (Q9Y478 whole entry): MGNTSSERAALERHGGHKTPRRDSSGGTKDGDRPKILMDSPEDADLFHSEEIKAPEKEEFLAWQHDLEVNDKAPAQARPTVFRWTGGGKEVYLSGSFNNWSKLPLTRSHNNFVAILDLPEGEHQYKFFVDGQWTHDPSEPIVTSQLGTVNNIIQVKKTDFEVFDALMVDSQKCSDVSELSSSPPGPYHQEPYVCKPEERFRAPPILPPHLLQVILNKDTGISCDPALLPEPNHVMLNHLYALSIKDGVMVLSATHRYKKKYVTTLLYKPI
T2 sequence (P54619 whole entry partner): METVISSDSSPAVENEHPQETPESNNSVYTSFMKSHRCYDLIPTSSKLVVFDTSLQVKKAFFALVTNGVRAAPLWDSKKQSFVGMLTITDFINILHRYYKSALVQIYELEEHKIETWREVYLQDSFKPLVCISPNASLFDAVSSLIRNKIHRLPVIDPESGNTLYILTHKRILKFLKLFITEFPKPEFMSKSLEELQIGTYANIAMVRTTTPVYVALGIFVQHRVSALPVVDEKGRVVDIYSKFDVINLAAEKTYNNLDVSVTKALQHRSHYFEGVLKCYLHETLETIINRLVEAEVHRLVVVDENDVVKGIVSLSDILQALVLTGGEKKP
T1 sequence (Q13131 whole entry): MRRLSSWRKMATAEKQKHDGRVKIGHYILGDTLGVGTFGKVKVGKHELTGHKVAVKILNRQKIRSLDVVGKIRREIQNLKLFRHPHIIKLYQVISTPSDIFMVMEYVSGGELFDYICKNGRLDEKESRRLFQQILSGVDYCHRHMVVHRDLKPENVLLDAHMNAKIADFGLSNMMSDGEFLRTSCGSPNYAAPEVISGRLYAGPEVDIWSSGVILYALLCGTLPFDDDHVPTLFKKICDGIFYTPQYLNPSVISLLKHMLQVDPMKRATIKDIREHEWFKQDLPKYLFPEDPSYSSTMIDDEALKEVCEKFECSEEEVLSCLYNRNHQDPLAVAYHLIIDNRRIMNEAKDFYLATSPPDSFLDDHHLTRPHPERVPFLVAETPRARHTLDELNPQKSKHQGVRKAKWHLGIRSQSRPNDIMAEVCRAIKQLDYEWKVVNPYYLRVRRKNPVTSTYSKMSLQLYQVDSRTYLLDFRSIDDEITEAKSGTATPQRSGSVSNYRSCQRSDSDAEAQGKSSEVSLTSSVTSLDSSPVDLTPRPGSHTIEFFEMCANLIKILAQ
T1 sequence (Q9Y478 whole entry): as the sequence (Q9Y478 whole entry) above
T1 sequence (P54619 whole entry partner): as the sequence (P54619 whole entry partner) above

Emax [2] [%] | EC50 [2] [nM] | Compound | blood glucose reduction (ob/ob and db/db mice) [%] | Emax [1] [%] | EC50 [1] [nM]
– | – | NC(=O)c1ncn([C@@H]2O[C@H](CO)[C@@H](O)[C@H]2O)c1N [AICAR] | 35 | – | –
– | – | Cc1ccc(Cc2cc3cc(-c4ccc(N5CCCC5)cc4)c(Cl)cc3[nH]2)cc1C(=O)O [Example 1, 5-((6-chloro-5-(4-(pyrrolidin-1-yl)phenyl)-1H-indol-2-yl)methyl)-2-methylbenzoic acid] | – | 581 | 37
– | – | Cc1ccc(Cc2cc3cc(-c4ccc(-c5ccc(S(C)(=O)=O)cc5)cc4)c(Cl)cc3[nH]2)cc1C(=O)O [Example 3] | – | 680 | 13
– | – | Cc1ccc(Cc2cc3cc(-c4ccc(C5(CO)CC5)cc4)c(Cl)cc3[nH]2)cc1C(=O)O [Example 6, 5-((6-chloro-5-(4-(1-(hydroxymethyl)cyclopropyl)phenyl)-1H-indol-2-yl)methyl)-2-methylbenzoic acid] | – | 601 | 10
– | – | CCOc1ccc(-c2cc3cc(Cc4ccc(C)c(C(=O)O)c4)[nH]c3cc2Cl)c(F)c1 [Example 8, 5-((6-chloro-5-(4-ethoxy-2-fluorophenyl)-1H-indol-2-yl)methyl)-2-methylbenzoic acid] | – | 265 | 493
– | – | CS(=O)(=O)c1ccc(-c2ccc(-c3cc4cc(CCCC(=O)O)[nH]c4cc3Cl)cc2)cc1 [Example 15] | – | 370 | 24
– | – | Cc1ccc(Cc2cc3nc(-c4ccc(C5(CO)CC5)cc4)c(Cl)cc3[nH]2)cc1C(=O)O [Example 18, 5-((6-chloro-5-(4-(1-(hydroxymethyl)cyclopropyl)phenyl)-1H-pyrrolo[3,2-b]pyridin-2-yl)methyl)-2-methylbenzoic acid] | – | 573 | 4
– | – | CS(=O)(=O)c1ccc(-c2ccc(-c3nc4cc(CCCCO)[nH]c4cc3Cl)cc2)cc1 [Example 21] | – | 590 | 2
– | – | CS(=O)(=O)c1ccc(-c2ccc(-c3nc4cc(CCCC(=O)O)[nH]c4cc3Cl)cc2)cc1 [Example 22] | – | 416 | 8
– | – | CS(=O)(=O)c1ccc(-c2ccc(-c3nc4cc(CCCCC(=O)O)[nH]c4cc3Cl)cc2)cc1 [Example 23] | – | 575 | 1
– | – | CS(=O)(=O)c1ccc(-c2ccc(-c3nc4cc(C[C@H]5CC[C@H](CO)CC5)[nH]c4cc3Cl)cc2)cc1 [Example 24, ((trans)-4-((6-chloro-5-(4′-(methylsulfonyl)-[1,1′-biphenyl]-4-yl)-1H-pyrrolo[3,2-b]pyridin-2-yl)methyl)cyclohexyl)methanol] | – | 256 | 14
– | – | Cc1ccc(Cc2cc3cc(-c4ccc(-c5ccncc5)cc4)c(Cl)cc3[nH]2)cc1C(=O)O [Example 30, 5-{[6-chloro-5-(4-pyridin-4-ylphenyl)-1H-indol-2-yl]methyl}-2-methylbenzoic acid] | – | 583 | 15
354 | 5 | O[C@@H]1CO[C@H]2[C@@H]1OC[C@H]2Oc1cc2nc(-c3ccc(-c4ccccc4)cc3)c(Cl)cc2[nH]1 [Example 69] | – | – | –
530 | < 3 | OCC1(c2ccc(-c3nc4cc(O[C@@H]5CO[C@H]6[C@@H]5OC[C@H]6O)[nH]c4cc3F)cc2)CC1 [Example 72] | – | – | –
446 | < 3 | O[C@@H]1CO[C@H]2[C@@H]1OC[C@H]2Oc1cc2nc(-c3ccc4c(c3)OCO4)c(Cl)cc2[nH]1 [Example 76] | – | – | –
472 | < 3 | Cn1ccc2cc(-c3nc4cc(O[C@@H]5CO[C@H]6[C@@H]5OC[C@H]6O)[nH]c4cc3Cl)ccc21 [Example 77] | – | – | –
230 | < 3 | Cc1ccc(Oc2cc3nc(-c4ccc(-c5ccccc5)cc4)c(Cl)cc3[nH]2)cc1C(=O)O [Example 80] | – | – | –
239 | 6 | Cc1ccc(Oc2cc3nc(-c4ccc(-c5ccccc5)cc4)c(F)cc3[nH]2)cc1C(=O)O [Example 82] | – | – | –
495 | 8 | O=S1(=O)CCN(c2ccc(-c3nc4cc(O[C@@H]5CO[C@H]6[C@@H]5OC[C@H]6O)[nH]c4cc3Cl)cc2)CC1 [Example 105] | – | – | –
492 | < 1 | Oc1ccccc1-c1ccc(-c2nc3cc(O[C@@H]4CO[C@H]5[C@@H]4OC[C@H]5O)[nH]c3cc2Cl)cc1 [Example 107, (3R,3aR,6R,6aR)-6-((6-chloro-5-(2′-hydroxy-[1,1′-biphenyl]-4-yl)-1H-pyrrolo[3,2-b]pyridin-2-yl)oxy)hexahydrofuro[3,2-b]furan-3-ol] | – | – | –
412 | < 1 | O[C@@H]1CO[C@H]2[C@@H]1OC[C@H]2Oc1cc2nc(-c3ccc(-c4ccc(-n5cncn5)cc4)cc3)c(Cl)cc2[nH]1 [Example 110] | – | – | –
333 | < 3 | Cc1ccc(Oc2cc3nc(-c4ccc(C5(CO)CC5)cc4)c(Cl)cc3[nH]2)cc1P(=O)(O)O [Example 114, (5-((6-chloro-5-(4-(1-(hydroxymethyl)cyclopropyl)phenyl)-1H-pyrrolo[3,2-b]pyridin-2-yl)oxy)-2-methylphenyl)phosphonic acid] | – | – | –
213 | 71 | OC[C@H]1OC[C@H](Oc2cc3nc(-c4ccc(-c5ccccc5)cc4)c(Cl)cc3[nH]2)C[C@@H]1O [Example 121, (2R,3S,5R)-5-((5-([1,1′-biphenyl]-4-yl)-6-chloro-1H-pyrrolo[3,2-b]pyridin-2-yl)oxy)-2-(hydroxymethyl)tetrahydro-2H-pyran-3-ol] | – | – | –
384 | 4 | OC[C@H]1OC[C@H](Oc2cc3nc(-c4ccc(C5(CO)CC5)cc4)c(Cl)cc3[nH]2)C[C@@H]1O [Example 122] | – | – | –
295 | 12 | OC[C@H]1OC[C@@H](Oc2cc3nc(-c4ccc(-c5ccccc5)cc4)c(Cl)cc3[nH]2)[C@@H]1O [Example 123] | – | – | –
305 | 15 | OC[C@H]1OC[C@@H](Oc2cc3nc(-c4ccc(C5(CO)CC5)cc4)c(Cl)cc3[nH]2)[C@@H]1O [Example 124] | – | – | –
486 | 56 | Cc1c(O[C@@H]2CC[C@H]3[C@@H]2OC[C@H]3O)[nH]c2cc(Cl)c(-c3ccc(-c4ccccc4)cc3)nc12 [Example 138] | – | – | –
